Here are results for seven compounds from US4435392A, “2,5-Benzodiazocine derivatives and salts thereof, as well as pharmaceutical agent comprising as effective component at least one of the derivatives and salts” (Sanwa Kagaku Kenkyusho Co. Ltd., priority 1982, dated 1984).

A word on the ED50: it is the midpoint of the dose-response relation. A low value points to an effect at a small dose. A word on the LD50: it is the dose at which mortality reaches 50%. Low readings indicate a more toxic substance, high ones a less toxic substance.

Bounds are passed on as bounds.

For data set [1], the system named is dd-male mice. Briefly: Analgetic action, Acetic Acid Stretching Method. It is filed as in vivo. To be noted: Mus musculus, po, orally given 30 minutes before acetic acid, hydrochloride. As for the experimental part:
(ii) Acetic Acid Stretching Method
The dd-male mice of 17 to 23 g were classified into groups, each having 10 mice, and 0.7% aqueous solution of acetic acid was dosed into abdominal cavity for each mouse in a ratio of 10 ml/kg and then a stretching condition was observed over 5 minutes of having lapsed 10 to 15 minutes from the dosage. The test was repeated 4 times to obtain total measured value and an inhibition ratio was measured from number of stretching actions. A judgement has been given in "Yes" or "No" system.
According to the Richfield and Wilcoxson Methods, ED50, LD50 and 95% confidence limit were calculated and compared the same for each testing agents and Control.
Each testing agent and control was orally given 30 minutes before the dosage of the acetic acid in a ratio of 100 mg/10 ml/kg.

Data set [2] deals with dd-type male mice. In words: Effect on Sleep (pentobarbital sleeping time). Format: in vivo. The following applies: pentobarbital 40 mg/kg. As for the experimental part: The dd-type male mice of 16 to 24 g were classified into groups, each having 10 mice. To each mouse, a testing agent was dosed through abdominal cavity and after having lapsed 30 minutes from the dosage, 40 mg/kg of pentobarbital was also dosed through abdominal cavity to measure a time of sleeping period. The sleeping time in question designates a time period, wherein a facing reflex disappears. Judgements were given based on following 7 measures.

Another data set is described as follows: Acute Toxity, rat. To be noted: in vivo. Here is the method:
(§1) The dd-type 5 weeks male mice of 21 to 26 g and Wister type 5 weeks male rats of 110 to 150 g were classified into groups, each having 10 mice or rats. After having given testing agents to the mice and rats, general conditions, number of deaths in each day and body weight changes have been observed over 7 days. An LD50 value was calculated based on total number of deaths during the 7 days testing time period, in accordance with the Richfield-Wilcoxson Method. The surviving animals were dissected to visually observe internal organs thereof.

The test system of a further data set is Wister type male rats. Briefly: Antipyretic Action (rectal body temperature). Format: in vivo. As for the experimental part:
Wister type male rats of 100 to 140 g were classified into groups, each having 4 to 5 rats. The rats were abstrained from food for 1 day and then each rat was entered in each cage. The body temperature was measured under a constant room temperature through the rectum. This body temperature measurement was carried out in 3 times before a dosage of agents as well as after lapsed 30, 60, 90, 120 and 150 minutes from the dosage.
Judgements have been given based on following 5 measures.

The test system of data set [3] is dd-male mice. Briefly: Analgetic action, Haffner's Method (tail root clamping). It is filed as in vivo. To be noted: Mus musculus, ip, abdominal cavity, hydrochloride. As for the experimental part:
In accordance with a usual manner, dd-male mice of 14 to 22 g were classified into groups, each having 10 mice, compounds to be tested in various concentrations were given to each mouse and then clamped a tail root of the mouse with use of Koffer clamps in each time period of having lapsed 15, 30, 45 and 60 minutes from the dosage to measure an analgetic action of the compounds by judging as "negative" when the tested mouse cries or looks back.
Further the number of deaths was counted in each 10 mice group after having lapsed 2 hours from dosage of each testing agent into abdominal cavity and then ED50, LD50 and 95% confidence limit were calculated based on the Richfield and Wilcoxson Methods to compare the results obtained on the agents.

In data set [4] the test system is dd-type male mice. In words: Effect on Sleep (pentobarbital sleeping time). It is filed as in vivo. To be noted: pentobarbital 40 mg/kg. This is another data set of the same source.
The next data set in a line: Acute Toxity, mouse. To be noted: in vivo. As for the experimental part:
as §1

Where [5] appears, read: intravenous injectional dosage, 7 days.
The mark [6] stands for this setting: in abdominal cavity 50 mg/Kg, hydrochloride.
Where [7] appears, read: ip, in abdominal cavity, 7 days.
Where [8] appears, read: in abdominal cavity 25 mg/Kg (control).

Consider `COc1ccc(C2c3ccccc3CN(CCCC(=O)c3ccc(F)cc3)CCN2C)cc1` (stereo not drawn) [Compound I-a, 5-[3-(p-fluorobenzoyl)propyl]-1,2,3,4,5,6-hexahydro-1-(p-methoxyphenyl)-2-methyl-2,5-benzodiazocine], for which the ED50 came out at 40.5 mg/kg with dd-male mice [1] and 18.4 mg/kg with dd-male mice [3]. The “Sleep Incrementing Action” value in the data set with dd-type male mice [2] (in abdominal cavity 50 mg/Kg) is “++ (sleeping time was extended by 30 to 60 minutes in comparison with control)”; in the data set on dd-type male mice [4] (oral dosage 100 mg/Kg), “+++ (sleeping time was extended by 60 minutes or more in comparison with control)”. Further, the LD50 at 168 h was 20 mg/kg in “Acute Toxity, rat” (setting [5]); 3500 mg/kg in “Acute Toxity, rat” (oral dosage, 7 days); 30.1 mg/kg in “Acute Toxity, mouse” (setting [5]); 179 mg/kg in the data set “Acute Toxity, mouse” (setting [7]); 1500 mg/kg in the data set “Acute Toxity, mouse” (oral dosage, 7 days). Further, the “Antipyretic Action” value with Wister type male rats (setting [6]) is “++ (showing decrease of 1° to 2 °C and obtaining at least one result of a notifiable difference of P<1%)”.

For the compound `COc1ccc(CCN2CCN(C)C(c3ccc(OC)cc3)c3ccccc3C2)cc1` (stereo not drawn) [Compound I-b, 5-(p-methoxyphenethyl)-1,2,3,4,5,6-hexahydro-1-(p-methoxyphenyl)-2-methyl-2,5-benzodiazocine], the ED50 in the data set on dd-male mice [1] was determined as 48.5 mg/kg; in the data set with dd-male mice [3] it was 26.2 mg/kg. For the same compound, the “Sleep Incrementing Action” value in the data set on dd-type male mice [2] (in abdominal cavity 50 mg/Kg) and in the data set with dd-type male mice [4] (oral dosage 100 mg/Kg) was “+++ (sleeping time was extended by 60 minutes or more in comparison with control)” throughout. The LD50 at 168 h in “Acute Toxity, rat” (setting [5]) amounted to 20.7 mg/kg; in “Acute Toxity, rat” (oral dosage, 7 days) it was 4090 mg/kg; in “Acute Toxity, mouse” (setting [5]), 33 mg/kg; in the data set “Acute Toxity, mouse” (setting [7]), 124 mg/kg; in the data set “Acute Toxity, mouse” (oral dosage, 7 days) it was 623 mg/kg. Also, the “Antipyretic Action” value in the data set on Wister type male rats (setting [6]) was “++ (showing decrease of 1° to 2 °C and obtaining at least one result of a notifiable difference of P<1%)”.

Consider `CN1CCN(CCCC(=O)c2ccc(F)cc2)Cc2ccccc2C1c1ccccc1` (stereo not drawn) [Compound I-c, 5-[3-(p-fluorobenzoyl)propyl]-1,2,3,4,5,6-hexahydro-1-phenyl-2-methyl-2,5-benzodiazocine], for which the ED50 with dd-male mice [1] was found to be 5.7 mg/kg; with dd-male mice [3], 44.2 mg/kg. Also, the “Sleep Incrementing Action” value with dd-type male mice [2] (in abdominal cavity 50 mg/Kg) and in the data set on dd-type male mice [4] (oral dosage 100 mg/Kg) was “+++ (sleeping time was extended by 60 minutes or more in comparison with control)” throughout. Further, the LD50 at 168 h in the data set “Acute Toxity, rat” (setting [5]) is 23.8 mg/kg; in “Acute Toxity, rat” (oral dosage, 7 days), greater than 4000 mg/kg; in the data set “Acute Toxity, mouse” (setting [5]) it was 29 mg/kg; in the data set “Acute Toxity, mouse” (setting [7]) it was 208 mg/kg; in “Acute Toxity, mouse” (oral dosage, 7 days), 1700 mg/kg. Further, in the data set on Wister type male rats (setting [6]), the “Antipyretic Action” value is “++ (showing decrease of 1° to 2 °C and obtaining at least one result of a notifiable difference of P<1%)”.

Turning to `c1ccc(C2NCCN(CC3CC3)Cc3ccccc32)cc1` (stereo not drawn) [Compound I-d, 5-cyclopropylmethyl-1,2,3,4,5,6-hexahydro-1-phenyl-2,5-benzodiazocine], the 50% effective dose (ED50) with dd-male mice [1] worked out at 13.5 mg/kg; in the data set with dd-male mice [3] it was 17.1 mg/kg. Besides, the “Sleep Incrementing Action” value in the data set on dd-type male mice [2] (in abdominal cavity 50 mg/Kg) and in the data set with dd-type male mice [4] (oral dosage 100 mg/Kg) was “-- (sleeping time was shortened by 30 to 60 minutes in comparison with control)” in each case. Moreover, the LD50 at 168 h in “Acute Toxity, rat” (setting [5]) is 17.8 mg/kg; in “Acute Toxity, rat” (oral dosage, 7 days), 485 mg/kg; in the data set “Acute Toxity, mouse” (setting [5]) it was 18 mg/kg; in “Acute Toxity, mouse” (setting [7]), 51.6 mg/kg; in the data set “Acute Toxity, mouse” (oral dosage, 7 days), 215 mg/kg. Moreover, the “Antipyretic Action” value with Wister type male rats (setting [6]) was “++ (showing decrease of 1° to 2 °C and obtaining at least one result of a notifiable difference of P<1%)”.

`CCOC(=O)/C=C/C(=O)Nc1ccc(CCN2CCNC(c3ccccc3)c3ccccc3C2)cc1` (stereo not drawn) [Compound I-e, [5(E)]-ethyl-4-[[4-[2-(1,2,3,4,5,6-hexahydro-1-phenyl-2,5-benzodiazocine)-5-yl]ethyl]phenyl]amino-4-oxo-2-butenoate]: the values for the 50% effective dose (ED50) with dd-male mice [1] and with dd-male mice [3] were 61.1 mg/kg and 80.3 mg/kg, respectively. In addition, the “Sleep Incrementing Action” value is “-- (sleeping time was shortened by 30 to 60 minutes in comparison with control)” in the data set with dd-type male mice [2] (in abdominal cavity 50 mg/Kg) and “++ (sleeping time was extended by 30 to 60 minutes in comparison with control)” in the data set with dd-type male mice [4] (oral dosage 100 mg/Kg). The LD50 at 168 h was greater than 5000 mg/kg in the data set “Acute Toxity, rat” (po); greater than 200 mg/kg in the data set “Acute Toxity, mouse” (ip); 938 mg/kg in the data set “Acute Toxity, mouse” (po). Further, the “Antipyretic Action” value in the data set with Wister type male rats (setting [6]) was “++ (showing decrease of 1° to 2 °C and obtaining at least one result of a notifiable difference of P<1%)”.

Consider `COc1ccc(C2NCCN(CCCC(=O)c3ccc(F)cc3)Cc3ccccc32)cc1` (stereo not drawn) [Compound I-f, 5-[3-(p-fluorobenzoyl)propyl]-1,2,3,4,5,6-hexahydro-1-(p-methoxyphenyl)-2,5-benzodiazocine], for which the ED50 in the data set with dd-male mice [1] came out at 11.5 mg/kg; with dd-male mice [3], 30.7 mg/kg. Further, the “Sleep Incrementing Action” value in the data set on dd-type male mice [2] (in abdominal cavity 50 mg/Kg) and with dd-type male mice [4] (oral dosage 100 mg/Kg) was “+++ (sleeping time was extended by 60 minutes or more in comparison with control)” each time. For the same compound, the LD50 at 168 h turned out to be 19.8 mg/kg in “Acute Toxity, rat” (setting [5]); 2890 mg/kg in the data set “Acute Toxity, rat” (oral dosage, 7 days); 35.9 mg/kg in the data set “Acute Toxity, mouse” (setting [5]); 109 mg/kg in the data set “Acute Toxity, mouse” (setting [7]); 340 mg/kg in the data set “Acute Toxity, mouse” (oral dosage, 7 days). Also, the “Antipyretic Action” value in the data set on Wister type male rats (setting [6]) was “++ (showing decrease of 1° to 2 °C and obtaining at least one result of a notifiable difference of P<1%)”.

As for `CN1CCOC(c2ccccc2)c2ccccc2C1` (stereo not drawn) [Nefopam, reference compound], the “Sleep Incrementing Action” value in the data set on dd-type male mice [2] (setting [8]) and in the data set with dd-type male mice [4] (oral dosage 50 mg/Kg (control)) was “-- (sleeping time was shortened by 30 to 60 minutes in comparison with control)” each time. In addition, the LD50 at 168 h in the data set “Acute Toxity, rat” (setting [5]) is 18 mg/kg; in the data set “Acute Toxity, rat” (oral dosage, 7 days), 595 mg/kg; in “Acute Toxity, mouse” (setting [5]), 36.8 mg/kg; in the data set “Acute Toxity, mouse” (setting [7]), 72.4 mg/kg; in “Acute Toxity, mouse” (oral dosage, 7 days), 356 mg/kg. The “Antipyretic Action” value in the data set with Wister type male rats (setting [8]) was “++ (showing decrease of 1° to 2 °C and obtaining at least one result of a notifiable difference of P<1%)”.
